Source: PubChem BioAssay AID762 (NMMLSC, 2007)

Each compound was assayed against fMet-Leu-Phe receptor (Homo sapiens) (UniProt P21462) (assay: FPR1 fluorescent ligand binding inhibitors, dose response, selectivity assay for FPRL1 ligand SAR project, cell-based, flow cytometry, IC50 (AID 762)). Conditions: FPR-expressing cells, fluorescent ligand binding competition, IC50 of ligand binding inhibition.
fMet-Leu-Phe receptor (Homo sapiens), sequence (P21462 whole entry, looked up): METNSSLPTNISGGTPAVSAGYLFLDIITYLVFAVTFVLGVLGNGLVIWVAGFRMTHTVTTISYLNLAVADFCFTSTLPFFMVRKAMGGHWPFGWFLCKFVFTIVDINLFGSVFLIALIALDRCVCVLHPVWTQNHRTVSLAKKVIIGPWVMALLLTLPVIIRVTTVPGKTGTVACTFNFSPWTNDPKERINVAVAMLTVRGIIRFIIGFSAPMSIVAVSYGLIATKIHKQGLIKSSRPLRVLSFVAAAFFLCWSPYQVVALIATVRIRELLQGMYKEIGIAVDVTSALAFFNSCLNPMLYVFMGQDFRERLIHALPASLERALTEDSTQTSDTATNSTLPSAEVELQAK
With COc1ccc(-c2cn3cccnc3n2)cc1NC(=O)C1CC1 the IC50 was > 72.1 µM. In the case of COc1ccc(-c2cn3cccnc3n2)cc1NC(=O)C1CCCC1, the IC50 is reported as > 66.1 µM. COc1ccc(-c2cn3cccnc3n2)cc1NC(=O)C(C)C was tested, and the IC50 was > 71.6 µM. For CCC(=O)Nc1cc(-c2cn3cccnc3n2)ccc1OC, the IC50 was > 75 µM. COc1ccc(-c2cc(C(F)(F)F)nc(N3CCN(C(c4ccccc4)c4ccccc4)CC3)n2)cc1OC was tested, and the IC50 was > 41.6 µM. In the case of CCOC(=O)N1CCN(c2nc(-c3ccc(OC)c(OC)c3)cc(C(F)(F)F)n2)CC1, the IC50 is reported as > 50.5 µM. COc1ccc(-c2cc(C(F)(F)F)nc(N3CCN(Cc4ccccc4)CC3)n2)cc1OC was tested, and the IC50 was > 48.5 µM. In the case of COc1ccc(CC(=O)Nc2cc(-c3cn4cccnc4n3)ccc2OC)cc1, the IC50 is reported as > 57.2 µM. With COc1ccc(-c2cc(C(F)(F)F)nc(N3CCN(c4ccccc4)CC3)n2)cc1OC the IC50 was > 50 µM. O=C(N1CCN(c2nc(-c3ccccc3)c3ccccc3n2)CC1)C(F)(F)F was tested, and the IC50 was > 57.5 µM.
